In patent publication US7759345B2, “Antitumoral derivatives of ET-743” (priority 2001, dated 2010):

Experiments:
K-562 = assay: Inhibition of cells growth by colorimetric assay (SRB), K-562; type: cell-based; conditions: K-562, SRB, 48 hours exposure
Experimental: (§1) 2°.—Inhibition of Cells Growth by Colorimetric Assay.
(§2) A colorimetric type of assay, using sulforhodamine B (SRB) reaction has been adapted for a quantitative measurement of cell growth and viability [following the technique described by Philip Skehan, et al. (1990), New colorimetric cytotoxicity assay for anticancer drug screening, J. Natl. Cancer Inst., 82:1107-1112]
(§3) This form of the assay employs 96 well cell culture microplates of 9 mm diameter (Faircloth, 1988; Mosmann, 1983). Most of the cell lines are obtained from American Type Culture Collection (ATCC) derived from different human cancer types.
(§4) Cells are maintained in RPMI 1640 10% FBS, supplemented with 0.1 g/l penicillin and 0.1 g/l streptomycin sulfate and then incubated at 37° C., 5% CO2 and 98% humidity. For the experiments, cells were harvested from subconfluent cultures using trypsin and resuspended in fresh medium before plating.
(§5) Cells are seeded in 96 well microtiter plates, at 5×10^3 cells per well in aliquots of 195 μl medium, and they are allowed to attach to the plate surface by growing in drug free medium for 18 hours. Afterward, samples are added in aliquots of 5 μl in a ranging from 10 to 10^−8 μg/ml, dissolved in DMSO/EtOH/PBS (0.5:0.5:99). After 48 hours exposure, the antitumor effect are measured by the SRB methodology: cells are fixed by adding 50 μl of cold 50% (wt/vol) trichloroacetic acid (TCA) and incubating for 60 minutes at 4° C. Plates are washed with deionized water and dried. One hundred μl of SRB solution (0.4% wt/vol in 1% acetic acid) is added to each microtiter well and incubated for 10 minutes at room temperature. Unbound SRB is removed by washing with 1% acetic acid. Plates are air dried and bound stain is solubilized with Tris buffer. Optical densities are read on a automated spectrophotometric plate reader at a single wavelength of 490 nm.
(§6) The values for mean+/−SD of data from triplicate wells are calculated. Some parameters for cellular responses can be calculated: GI=growth inhibition, TGI=total growth inhibition (cytostatic effect) and LC=cell killing (cytotoxic effect).
(§7) Obtained results may predict the usefulness of a certain drug as a potential cancer treatment. For this technique, compounds which show GI50 values smaller than 10 μg/ml are selected to continue with further studies. GI50's data allow to predict that not only could a drug be cystostatic, but also it could have a potential in terms of tumor reduction.

A-549 = assay: Inhibition of cells growth by colorimetric assay (SRB), A-549; type: cell-based; conditions: A-549, SRB, 48 hours exposure
In short: (§8)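 SRB read-out at 490 nm after 48 h drug exposure (10 to 10^−8 μg/ml) of cells plated at 5×10^3/well and attached 18 h in drug-free RPMI 1640/10% FBS. Triplicate means give GI, TGI (cytostatic) and LC (cytotoxic).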

SK-MEL-28 = assay: Inhibition of cells growth by colorimetric assay (SRB), SK-MEL-28; type: cell-based; conditions: MEL-28, SRB, 48 hours exposure
In short: as §8

HT-29 = assay: Inhibition of cells growth by colorimetric assay (SRB), HT-29; type: cell-based; conditions: HT-29, SRB, 48 hours exposure
In short: as §8

LoVo = assay: Inhibition of cells growth by colorimetric assay (SRB), LoVo; type: cell-based; conditions: LOVO, SRB, 48 hours exposure
Experimental: as §1, §2, §3, §4, §5, §6, §7

LoVo-Dox = assay: Inhibition of cells growth by colorimetric assay (SRB), LoVo-Dox; type: cell-based; conditions: LOVO-DOX, SRB, 48 hours exposure
Experimental: as §1, §2, §3, §4, §5, §6, §7

DU-145 = assay: Inhibition of cells growth by colorimetric assay (SRB), DU-145; type: cell-based; conditions: DU-145, SRB, 48 hours exposure
Experimental: as §1, §2, §3, §4, §5, §6, §7

LNCaP = assay: Inhibition of cells growth by colorimetric assay (SRB), LNCaP; type: cell-based; conditions: LNCAP, SRB, 48 hours exposure
Experimental: as §1, §2, §3, §4, §5, §6, §7

SK-BR-3 = assay: Inhibition of cells growth by colorimetric assay (SRB), SK-BR-3; type: cell-based; conditions: SK-BR3, SRB, 48 hours exposure
Experimental: as §1, §2, §3, §4, §5, §6, §7

IGROV-1 = assay: Inhibition of cells growth by colorimetric assay (SRB), IGROV-1; type: cell-based; conditions: IGROV, SRB, 48 hours exposure
Experimental: as §1, §2, §3, §4, §5, §6, §7

IGROV-ET = assay: Inhibition of cells growth by colorimetric assay (SRB), IGROV-ET; type: cell-based; conditions: IGROV-ET, SRB, 48 hours exposure
Experimental: as §1, §2, §3, §4, §5, §6, §7

SK-OV-3 = assay: Inhibition of cells growth by colorimetric assay (SRB), SK-OV-3; type: cell-based; conditions: SK-OV3, SRB, 48 hours exposure
Experimental: as §1, §2, §3, §4, §5, §6, §7

PANC-1 = assay: Inhibition of cells growth by colorimetric assay (SRB), PANC-1; type: cell-based; conditions: PANC-1, SRB, 48 hours exposure
Experimental: as §1, §2, §3, §4, §5, §6, §7

HMEC1 = assay: Inhibition of cells growth by colorimetric assay (SRB), HMEC1; type: cell-based; conditions: HMEC-1, SRB, 48 hours exposure
Experimental: as §1, §2, §3, §4, §5, §6, §7

Source text for Heart: (§9) Toxicity was asssessed by the methods reported in Toxicology in Vitro, 15 (2001) 571-577, J. Luber Narod et al.: “Evaluation of the use of in vitro methodolodies as tools for screening new compounds for potential in vivo toxicity”.
Source text for Kidney: as §9
Source text for Liver: as §9
Source text for Skeletal: as §9

SMILES: COc1cc2c(cc1OC(=O)Cc1cc(=O)oc3cc(N(C)C)ccc13)CCN[C@]21CS[C@@H]2c3c(OC(C)=O)c(C)c4c(c3[C@H](COC1=O)N1C2[C@H]2c3c(cc(C)c(OC)c3OC(=O)Cc3cc(=O)oc5cc(N(C)C)ccc35)C[C@@H]([C@@H]1O)N2C)OCO4 (stereo partly shown) [Compound 78]
- K-562 TGI (K-562): 2.56E-09
- GI50 (K-562; read-out: K-562 GI50): 1.24 nM
- LC50 (50% cell killing) (K-562; read-out: K-562 LC50): 7.5 nM
- TGI A-549 (A-549): 1.99E-08
- GI50 (A-549; read-out: GI50 A-549): 9.59 nM
- LC50 (concentration for 50% cell killing) (A-549; read-out: A-549 LC50): 41.1 nM
- MEL-28 TGI (SK-MEL-28): 4.48E-09
- GI50 (SK-MEL-28; read-out: MEL-28 GI50): 2.15 nM
- CC50 (SK-MEL-28; read-out: MEL-28 LC50): 16.9 nM
- HT-29 TGI (HT-29): 1.10E-07
- GI50 (HT-29; read-out: HT-29 GI50): 17.1 nM
- LOVO TGI (LoVo): 2.83E-08
- GI50 (LoVo; read-out: LOVO GI50): 10.7 nM
- LC50 (concentration for 50% cell killing) (LoVo; read-out: LOVO LC50): 74.3 nM
- LOVO-DOX TGI (LoVo-Dox): 8.77E-07
- GI50 (LoVo-Dox; read-out: LOVO-DOX GI50): 88.5 nM
- DU-145 TGI (DU-145): 8.52E-09
- GI50 (DU-145; read-out: DU-145 GI50): 3.21 nM
- LNCAP TGI (LNCaP): 4.05E-09
- GI50 (LNCaP; read-out: LNCAP GI50): 2.74 nM
- CC50 (LNCaP; read-out: LNCAP LC50): 5.99 nM
- SK-BR3 TGI (SK-BR-3): 1.70E-08
- GI50 (SK-BR-3; read-out: SK-BR3 GI50): 4.31 nM
- CC50 (SK-BR-3; read-out: SK-BR3 LC50): 63.3 nM
- IGROV TGI (IGROV-1): 6.27E-09
- GI50 (IGROV-1; read-out: IGROV GI50): 2.38 nM
- CC50 (IGROV-1; read-out: IGROV LC50): 53.9 nM
- IGROV-ET TGI (IGROV-ET): 7.42E-07
- GI50 (IGROV-ET; read-out: IGROV-ET GI50): 114 nM
- SK-OV3 TGI (SK-OV-3): 6.27E-08
- GI50 (SK-OV-3; read-out: SK-OV3 GI50): 3.79 nM
- PANC-1 TGI (PANC-1): 3.24E-08
- GI50 (PANC-1; read-out: PANC-1 GI50): 5.42 nM
- LC50 (concentration for 50% net cell kill) (PANC-1; read-out: PANC-1 LC50): 4900 nM
- HMEC-1 TGI (HMEC1): 2.35E-07
- GI50 (HMEC1; read-out: HMEC-1 GI50): 28.3 nM
- Toxicity Data Liver (Liver): 5.88E-08
- Toxicity Data Heart (Heart): 8.19E-07
- Toxicity Data Skeletal (Skeletal): 1.96E-08
- Toxicity Data Kidney (Kidney): 2.59E-07
